Experimental data: patent publication US12577232B2, “N-heterocycle substituted tryptamine derivatives and methods of using” (ENVERIC B[…] INC., priority 2024, dated 2026)

Columns and labels:
[1] = molecular target: T1, 5-HT2A receptor (Homo sapiens, UniProt P28223); experiment: Functional cell-based 5-HT2A assay, agonism mode (CHO-K1/5-HT2A, Fluo-8 calcium flux); details: CHO-K1/5-HT2A cells
T1 construct: purchased PerkinElmer ES-313-M400UA
Description: Herein, functional, cell-based assays were conducted to determine (1) agonist potency and efficacy of drugs at the 5-HT2A receptor (agonist mode), and (2) antagonist potency at the 5-HT2A receptor (antagonist mode).
All cells were grown and maintained as a monolayer in Ham's F12 nutrient mix supplemented with 10% fetal bovine serum (FBS) and 400 μg/mL geneticin (G418) all from ThermoFisher Scientific and used according to the manufacturer's instructions. Cells were cultured and incubated at 37° C. in a humidified oxygen atmosphere with 5% CO2. To evaluate the activation of 5-HT2A signal transduction, cells were first seeded in tissue culture-treated, black-walled, clear-bottom 96-well plates (Thermo Scientific) at a density of 40,000 cells/well in 100 pl Ham's F12 nutrient mix supplemented with 2% FBS. Cells were cultured for 24 h in a humidified incubator at 37° C. and 5% CO2. Cells were then loaded with Fluo-8 calcium indicator dye for 1 h at 37° C. and an additional 30 min at room temperature as per the manufacturer's protocol. […] Kinetic increases in intracellular calcium levels were measured immediately after addition of test compounds every 6.4 s for a total of 3 min using the FlexStation 3 multimode microplate reader and SoftMax Pro 7.1 analysis software (Molecular Devices, moleculardevices.com). […] EC50 values were calculated from the normalized data from GraphPad PRISM software.

[2] = molecular target: T1, 5-HT2A receptor; experiment: Functional cell-based 5-HT2A assay, antagonism mode (CHO-K1/5-HT2A, 100 nM serotonin, calcium flux); details: CHO-K1/5-HT2A cells, with 100 nM serotonin
Description: A variety of 5-HT2A receptor engagement modes have been correlated with positive outcomes in the treatment of neurological disorders. While agonism is associated with a host of favourable effects, antagonizing the 5-HT2A receptor is also an attractive pharmacological approach. For example, antagonism is known to alleviate both dyskinesisa and psychosis in Parkinson's Disorder and holds promise for other psychiatric diseases (Mestre et al., 2013, Expert Opin. Investig. Drugs 22:411-421). Similarly positive outcomes are noted for inverse agonists (Cummings et al., 2014, Lancet, 383:533-540; Roberts, 2006, Curr. Opin. Invest. Drugs 7:653-660). […]
Stimulation of 5-HT2A coupled to the Gq family proteins leads to activation of the phospholipase C (PLC) pathway, ultimately resulting in the accumulation of cytosolic calcium (Cussac et al., Europ. J. Pharmacol., 2008, 594 (1-3), 32-38). […] Kinetic increases in intracellular calcium levels were measured immediately after addition of ligands every 6.4 s for a total of 3 min using the FlexStation 3 multimode microplate reader and SoftMax Pro 7.1 analysis software (Molecular Devices, moleculardevices.com). […] IC50 values were calculated from the normalized data from GraphPad PRISM software. […]

[3] = system: stressed C57BL/6-Elite mice; experiment: Mouse marble burying (MB) assay to assess anxiolytic potential; format: in vivo; details: i.p., psilocin 3 mg/kg, compound (XV) 10 mg/kg; vs Vehicle+Stress
Description: Marble burying behavior is used to measure the level of anxiety in a rodent when it encounters unfamiliar objects (Deacon, 2006, Nature Protocols 1:122-124). This assay is routinely applied to the study of chronically stressed mice, where drug candidates are evaluated for an ability to diminish stress-induced, anxiety-like behaviours (e.g., Wang et al., ACS Chem. Neurosci. 14:977-987). Positive results in this assay may be interpreted as an indication of therapeutic (anxiolytic) potential in the treatment of various psychiatric disorders. Herein, we applied the marble burying model to investigate whether selected drugs could alleviate anxiety behaviour in stressed mice.
All animal protocols were approved by the University of Calgary Animal Care and Use Committee. C57BL/6-Elite mixed sex mice were obtained from Charles River Laboratories (Toronto, Canada) at 8-9 weeks old. […]
On the testing days, 10 glass marbles (approx. 15 mm in diameter) were evenly spaced on 5 cm of wood-chip bedding (lightly tamped down to make a flat and even surface). […] The number of marbles buried to ⅔rds their depth was measured. Fully buried marbles were counted as 1 and partially (at least ⅔rds) buried marbles were counted as 0.5. […]

[4] = system: stressed C57BL/6-Elite mice; experiment: Mouse sucrose preference (SP) assay to assess antidepressant potential; format: in vivo; details: i.p., psilocin 3 mg/kg, compound (XV) 10 mg/kg; one day after administration
Description: Reduced intake of pleasurable substances, e.g., of sucrose water, is a validated behavioral measure of anhedonic/depressive-like state in rodents (Moreau et al., 1992, Eur. Neurpsychopharmocol. 2:43-49; Liu et al., 2018, Nature Protocols 13:1686-1698). […] In the SP assay, cohorts of mice are pre-stressed, leading to a depressed state. The ability of drugs to rescue this state are evaluated.
All animal protocols were approved by the University of Calgary Animal Care and Use Committee. C57BL/6-Elite mixed sex mice were obtained from Charles River Laboratories (Toronto, Canada) at 8-9 weeks old. Mice were maintained on a 12:12 h light/dark schedule (lights on at 07:00 hours) with ad libitum access to food and water and group-housed until 2 days prior to the start of the mild chronic stress paradigm, then mice were single-housed. […]
Mice were introduced to 1% sucrose solution in their drinking water for 24 hrs for 2 days prior to initial sucrose preference testing to reduce impact of novelty. […] The consumption in water, sucrose solution, and total intake of liquids was measured by weighing each bottle before and after the 24-hr experiment. The preference for sucrose was calculated as a percentage of the consumed sucrose solution from the total intake of both water and sucrose solutions. […]

[5] = after intravenous (and oral) psilocybin administration (Raithatha et al., 2023); cited from earlier work

T1 sequence (P28223 whole entry): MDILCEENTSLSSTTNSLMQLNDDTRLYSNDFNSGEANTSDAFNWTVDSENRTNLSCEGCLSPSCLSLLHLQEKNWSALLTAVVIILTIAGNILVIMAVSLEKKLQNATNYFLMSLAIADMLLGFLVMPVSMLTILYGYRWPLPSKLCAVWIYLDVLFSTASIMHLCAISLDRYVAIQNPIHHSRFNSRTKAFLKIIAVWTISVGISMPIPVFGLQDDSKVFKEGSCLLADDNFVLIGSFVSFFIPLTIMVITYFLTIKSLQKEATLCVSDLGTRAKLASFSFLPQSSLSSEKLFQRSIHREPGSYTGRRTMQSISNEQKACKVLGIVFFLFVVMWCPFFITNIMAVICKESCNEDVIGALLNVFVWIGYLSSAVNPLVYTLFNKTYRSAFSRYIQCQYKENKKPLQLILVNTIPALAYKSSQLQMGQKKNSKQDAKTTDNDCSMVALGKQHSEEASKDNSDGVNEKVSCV

**Q.** For `CN(C)CCc1c[nH]c2cccc(O)c12` [psilocin, reference compound], which “engagement at the 5-HT2A receptor, agonist mode” value [1] is on record?
**A.** The value was “agonism”.

**Q.** What about the “engagement at the 5-HT2A receptor, antagonist mode” value [2] of the same compound?
**A.** The value was “antagonism”.

**Q.** And the “anxiety-linked (marble burying) behavior in stressed mice” value [3]?
**A.** Its value is “rescued”.

**Q.** And the “sucrose preference behaviour in stressed mice vs no drug control” value [4]?
**A.** Its value is “significantly elevated”.

**Q.** And the persistence in plasma [5]?
**A.** Its persistence in plasma is over 8 h.
